Experimental data: ChEMBL document CHEMBL1201862, “PubChem BioAssay data set” (2004)
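Five compound concentrations were applied to cells in 96-well plates for 48 hours; endpoints were derived by simple linear interpolation of the resulting dose-response curve. Here, GI50 denotes the concentration required for 50% inhibition of growth.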 Activity calls are given as the source filed them. Rule as the data show it: active = GI50 up to about 1.1 µM and inactive = higher.

Legend:
Assay in all cases: growth of human tumour cells (NCI), 48 h
SF-268 = system: SF-268
OVCAR-8 = system: OVCAR-8
A498 = system: A498
SNB-19 = system: SNB-19
NCI-H460 = system: NCI-H460
U-251 = system: U-251
COLO 205 = system: COLO 205
SK-MEL-28 = system: SK-MEL-28
UACC-257 = system: UACC-257
MOLT-4 = system: MOLT-4
ACHN = system: ACHN
PC-3 = system: PC-3
M14 = system: M14
A549 = system: A549
BT-549 = system: BT-549
SN12C = system: SN12C
OVCAR-4 = system: OVCAR-4
LOX IMVI = system: LOX IMVI
MDA-N = system: MDA-N

Measured: GI50

COc1cc(/C=C2\C(=O)N(Cc3ccccc3)C(c3ccccc3)S2(=O)=O)cc(OC)c1OC (centres undefined)
inactive: SF-268 31.3 µM | OVCAR-8 37.2 µM | A498 21.4 µM | SNB-19 > 100 µM | NCI-H460 35.4 µM | U-251 92.3 µM | COLO 205 21.3 µM | SK-MEL-28 93.8 µM | UACC-257 26.2 µM | MOLT-4 4.11 µM | ACHN 67.3 µM | PC-3 43 µM | M14 52.7 µM | A549 29.9 µM | BT-549 36.3 µM | SN12C 74 µM | OVCAR-4 17.5 µM | LOX IMVI 27.5 µM | MDA-N 61.8 µM

O=C(O)CSc1ncccc1[N+](=O)[O-]
inactive: SF-268 > 100 µM | OVCAR-8 > 100 µM | A498 > 100 µM | SNB-19 > 100 µM | NCI-H460 > 100 µM | U-251 > 100 µM | COLO 205 > 100 µM | SK-MEL-28 > 100 µM | UACC-257 > 100 µM | MOLT-4 > 100 µM | ACHN > 100 µM | PC-3 > 100 µM | M14 > 100 µM | A549 > 100 µM | BT-549 > 100 µM | SN12C > 100 µM | OVCAR-4 > 100 µM | LOX IMVI > 100 µM | MDA-N > 100 µM

COc1cccc(CCCNC(=O)Cc2ccccc2CO)c1
inactive: OVCAR-8 > 100 µM | A498 > 100 µM | SNB-19 > 100 µM | NCI-H460 > 100 µM | U-251 > 100 µM | COLO 205 > 100 µM | SK-MEL-28 > 100 µM | UACC-257 > 100 µM | MOLT-4 > 100 µM | ACHN > 100 µM | PC-3 > 100 µM | M14 > 100 µM | A549 > 100 µM | BT-549 > 100 µM | SN12C > 100 µM | OVCAR-4 > 100 µM | LOX IMVI > 100 µM | MDA-N > 100 µM

CC(CCc1nc2ccccc2s1)(c1ccc(O)cc1)c1ccc(O)cc1
inactive: SF-268 20 µM | OVCAR-8 21.7 µM | A498 20.7 µM | SNB-19 17.5 µM | NCI-H460 16.4 µM | U-251 14.6 µM | SK-MEL-28 19 µM | UACC-257 15.3 µM | MOLT-4 12.7 µM | ACHN 18.3 µM | PC-3 14.8 µM | M14 16.1 µM | A549 18.3 µM | BT-549 19.4 µM | SN12C 17.9 µM | OVCAR-4 19.1 µM | LOX IMVI 16 µM | MDA-N 16.5 µM
